According to patent US20030134901A1, “Lipoxin compounds and their use in treating cell proliferative disorders” (priority 1993, published 2003):

What was measured:
[1] = target: T1, LXA4 specific binding sites of differentiated HL-60 cells (Homo sapiens, UniProt P25090); assay: 3H-LXA4 specific binding to differentiated HL-60 cells; settings: competition, competitor 300 nM where printed
T1 construct: endogenous in cells; host or cells: HL-60 cells differentiated with DMSO, retinoic acid or PMA; intact cells
T1 sequence (P25090 1-351): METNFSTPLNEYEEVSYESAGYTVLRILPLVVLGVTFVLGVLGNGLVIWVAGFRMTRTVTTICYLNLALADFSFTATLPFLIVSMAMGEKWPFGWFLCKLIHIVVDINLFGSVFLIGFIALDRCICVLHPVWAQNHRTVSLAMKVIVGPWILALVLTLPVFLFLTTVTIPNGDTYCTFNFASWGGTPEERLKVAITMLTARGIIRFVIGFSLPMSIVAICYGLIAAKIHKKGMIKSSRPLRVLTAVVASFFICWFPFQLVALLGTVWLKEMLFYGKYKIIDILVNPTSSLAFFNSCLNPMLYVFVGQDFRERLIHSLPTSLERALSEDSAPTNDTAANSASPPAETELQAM
Method: Preparation of [11,12-^3H]LXA4. Tritiation of 11,12-acetylenic LXA4 methyl ester was carried out under a custom tritiation service (NET-259:92-2326) by New England Nuclear (Boston, Mass.). Briefly, 11,12-acetylene methyl ester was characterized by UV absorbance and reverse-phase HPLC as in (Nicolaou, K. C. et al. (1985) J. Am. Chem. Soc. 107:7515) and exposed to tritium atmosphere in methylene chloride at room temperature. This incubation was stirred in the presence of Lindlar catalyst (1.0 mg from Fluka Chemicals) for˜1 h. The resulting mixture was stored in methanol and isolated using RP-HPLC. Tritiated products were chromatographed as methyl esters utilizing a gradient HPLC system equipped with a photodiode array rapid spectral detector (Serhan, C. N., Methods in Enzymology: Arachidonate Related Lipid Mediators, in Murphy R. C., Fitzpatrick, F. (eds.), vol. 187. Orlando, Fla., Academic, (1990), p. 167). This mixture contained both [11,12-^3H]LXA4 and [11,12-^3H]-11-trans-LXA4 methyl esters (˜1:3 ratio) as determined by coelution with synthetic standards. After RP-HPLC, fractions containing [11,12-^3H]LXA4 were collected, and extracted into ethyl acetate. The free acid was prepared by LiOH saponification (Fiore, S. et al. (1992) J. Biol. Chem. 267:16168). Material from these fractions, when injected into UV-electrochemical detection HPLC, gave greater than 90% of radioactivity associated with a tetraene-containing product that coeluted with synthetic LXA4. Materials that eluted with the retention time of authentic LXA4 in two HPLC systems were taken for binding experiments. The specific activity calculated for [11,12-^3H]LXA4 was 40.5 Ci/mmole.
Cell cultures and differentiation. HL-60 cells were seeded in RPMI medium supplemented with 100 U/ml penicillin, 100 μg/ml streptomycin, and 10% fetal calf serum (Hyclone, Logan, Utah), incubated at 37° C. with 5% CO2 atmosphere in 250 ml flasks. Individual flasks containing ˜[…] next received dimethyl sulfoxide (DMSO) (1.12% v/v, 120 h) or retinoic acid (RA) (1 μM, 120 h) or phorbol myristate acetate (PMA) (20 nM, 48 h). Before performing binding assays, cells were washed twice in phosphate buffered saline (PBS), Ca^2+- and Mg^2+-free, enumerated and suspended at 20×10^6 cells/ml in Tris buffer (10 mM), pH 7.4 (Fiore, S. et al.(1992) J. Biol. Chem. 267:16168). Nitro blue tetrazolium reduction was performed to monitor induction of polymorphonuclear phenotype as in (Imaizumi, M. and Breitman, T. R. (1986) Blood 67:1273), and cell adherence was determined for induction of macrophage-like phenotype (Collins, S. J. (1987) Blood 70:1273). Human umbilical vein endothelial cells (HUVEC) maintained in culture third passage were obtained from Dr. M. Gimbrone (Brigham and Women's Hospital Department of Pathology).
Ligand binding. ^3H-LXA4 and ^3H-LTB4 binding was performed essentially as in Fiore, S. et al.(1992) J. Biol. Chem. 267:16168. After suspending cells in Tris buffer 10 mM (pH 7.4, Ca^2+ 2.5 mM, Mg^2+ 1.2 mM), aliquots (0.5 ml) were incubated (20 min at 4° C.) with ^3H- ligands alone (0.3 nM) or in the presence of increasing concentrations of homoligands or other compounds (3-300 nM). The incubations were rapidly centrifuged (60 sec, 12,000 g) on silicon oil (d=1.028), and cell-associated radioactivity was determined by liquid scintillation counting (Wallac 1409, Pharmacia, Piscataway, N.J.). Binding experiments with HUVEC cells were performed in 12 well plates with 3.5×10^5 cells/well. After 10 min, wells were washed twice with PBS and cell-associated label was recovered by adding glacial acetic acid (0.5 ml). Results obtained from these assays were submitted for further analysis using the Ligand program (Elsevier-Biosoft, Cambridge, UK).

A549 cells = assay: A549 cell proliferation, MTT assay; format: cell-based, human
Method: A microculture 3,(4,5-dimethylthiazoyl-2-yl) 2,5 (diphenyl-tetrazolium bromide) (MTT) assay, (Marshall, N. J., et al. (1995) A critical assessment of the use of microculture tetrazolium assays to measure cell growth and function. Growth Regul. 5: 69-84.), was used to examine the actions of LXs and other eicosanoids on cell proliferation. A549 cells and fibroblasts from exponential-phase maintenance cultures were counted and dispensed within replicate 96-well culture plates in 100 μl volumes of medium (˜2000 cells/well). Following 24 hours at 37° C., the culture medium was removed, and fresh medium (100 μl) containing either the compounds (5-1000 nM) or vehicle (medium plus 0.15% ethanol) was added to 4 replicates for each condition studied and the culture plates were then incubated for up to 96 hours at 37° C. in a 5% CO2 atmosphere. At the end of this period, 25 μl of freshly prepared MTT in HBSS (5 mg/ml) was added to the wells and the plates were incubated for 4 hours at 37° C. Dye solution was aspirated, wells were washed once with HBSS and dye taken up by the cells was extracted in 100 μl of isopropyl alcohol:1 N HCl (96:4, v/v) and quantitated at 570 nm using a microplate reader (Molecular Devices, Menlo Park, Calif.). In some experiments, cells were grown in 12-well culture plates, treated as above and enumerated using a Neubauer hemocytometer. Viability was assessed routinely using trypan blue exclusion assay. For the A549 cells and fibroblasts, a linear relation was established for the MTT values and cell number within the range of the experiments shown (r=0.995, P<0.005). A549 cells grown for 72 hours in the presence of the compounds (5-1000 nM) or vehicle (0.15% EtOH) were lysed with 0.25 N NaOH and the cellular protein content was determined by applying the Bio-Rad (Richmond, Calif.) microassay method using bovine serum albumin as standard. The mean cellular protein content in resting A549 cells was 46.6±1.5 pg/cell.

human skin fibroblasts = assay: Fibroblast proliferation, MTT assay; format: cell-based; settings: 100 nM, n=3
Text: Human type II epithelial A549 cells from human lung carcinoma and normal human skin fibroblast (breast) were obtained from the American Type Culture Collection (Rockville, Md.). The A549 cell line originated from a human alveolar cell carcinoma and was a useful cell line because it was easily assessable and could be maintained in culture without contaminating tissue macrophages. (Lieber, M., et al (1976) A continuous tumor-cell line from a human lung carcinoma with properties of type II alveolar epithelial cells. Int. J Cancer Fibroblasts were utilized within their limited window of viability and their passage numbers were recorded (results are reported for cells from 3-5 passages). Epithelial A549 cells were seeded into T-75 cm^2 tissue culture flasks and maintained in F-12K medium supplemented with 10% heat-inactivated FBS, penicillin (50 U/mL) and streptomycin (50 (g/mL). Human PMN from healthy donors who had not taken ASA or other medications for at least two weeks were obtained by Ficoll-Hypaque gradient centrifugation and dextran sedimentation, (Böyum A. (1968) Isolation of mononuclear cells and granulocytes from human blood. […] Viability of A549 cells and PMN was determined by their ability to exclude trypan blue and were 95±2 and 97±1%, respectively.
A microculture 3,(4,5-dimethylthiazoyl-2-yl) 2,5 (diphenyl-tetrazolium bromide) (MTT) assay, (Marshall, N. J., et al. (1995) A critical assessment of the use of microculture tetrazolium assays to measure cell growth and function. Growth Regul. 5: 69-84.), was used to examine the actions of LXs and other eicosanoids on cell proliferation. A549 cells and fibroblasts from exponential-phase maintenance cultures were counted and dispensed within replicate 96-well culture plates in 100 μl volumes of medium (˜2000 cells/well). […] Dye solution was aspirated, wells were washed once with HBSS and dye taken up by the cells was extracted in 100 μl of isopropyl alcohol:1 N HCl (96:4, v/v) and quantitated at 570 nm using a microplate reader (Molecular Devices, Menlo Park, Calif.). […]

CCCCC[C@H](O)[C@H](O)/C=C/C=C/C=C\C=C\[C@@H](O)CCCC(=O)O [LXB4, (5S, 14R, 15S)-trihydroxy-6E, 8Z, 10E, 12E-eicosatetraenoic acid]
displacement of 3H-LXA4 specific binding [1]: Neither LXB4, LTB4, nor trihydroxyheptanoic acid (methyl ester) (300 nM) were able to displace | inhibition of A549 cell proliferation over time (A549 cells; 1 μM, after 72 and 96 hours of treatment): inhibited A549 cell proliferation | % inhibition (A549 cells; 10^−7 M, 72 hours at 37° C., mean ± SEM, 3 to 7 experiments): 30.0 ± 8.5% | times more active than either LXA4 or dexamethasone (A549 cells; concentrations of 0.5 and 1 μM, 72 hours): 3 times | inhibition proliferation (A549 cells; equimolar levels (100 nM), Table 1): ~34% | inhibition of proliferation of fibroblasts (human skin fibroblasts): 38.0%
